Measured values: patent US11173151B2, “Substituted triazole derivatives and uses thereof” (BAYER AKTIENGESELLSCHAFT, priority 2017, dated 2021)
Read-outs that look alike come from different tables or passages of the source.

Experiments:
human V2 receptor = target: T1, human V2 receptor (Homo sapiens, UniProt P30518); experiment: Cellular in vitro assay for determining vasopressin receptor activity, V2 receptor cell line (CHO, CRE-luciferase); type: cell-based; conditions: CHO cell line transfected with human V2 receptor, [Arg8]-vasopressin at EC50 concentration, read-out: IC50 hV2
T1 construct: expressed in transfected cells; host or cells: CHO K1 (ATCC) expressing firefly luciferase under a CRE-responsive promoter

human V1a receptor = target: T2, human V1a receptor (Homo sapiens, UniProt P37288); experiment: Cellular in vitro assay for determining vasopressin receptor activity, V1a receptor cell line (CHO, aequorin luminescence); type: cell-based; conditions: for IC50: CHO cell line transfected with human V1a receptor, [Arg]-vasopressin at EC50 concentration, read-out: IC50 hV1a; for ratio IC50 hV2/hV1a: selectivity ratio IC50 hV2 / IC50 hV1a
T2 construct: expressed in transfected cells; host or cells: CHO K1 (ATCC), also stably transfected with a modified aequorin
How it was run: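 Antagonism is measured in stable CHO K1 transfectants coexpressing the Gαq-coupled receptor and a calcium-sensitive aequorin photoprotein. Agonist challenge uses [Arg]-vasopressin at EC50 after a 10-minute compound exposure; IC50 values come from the luminescence signal.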

T2 sequence (P37288 whole entry): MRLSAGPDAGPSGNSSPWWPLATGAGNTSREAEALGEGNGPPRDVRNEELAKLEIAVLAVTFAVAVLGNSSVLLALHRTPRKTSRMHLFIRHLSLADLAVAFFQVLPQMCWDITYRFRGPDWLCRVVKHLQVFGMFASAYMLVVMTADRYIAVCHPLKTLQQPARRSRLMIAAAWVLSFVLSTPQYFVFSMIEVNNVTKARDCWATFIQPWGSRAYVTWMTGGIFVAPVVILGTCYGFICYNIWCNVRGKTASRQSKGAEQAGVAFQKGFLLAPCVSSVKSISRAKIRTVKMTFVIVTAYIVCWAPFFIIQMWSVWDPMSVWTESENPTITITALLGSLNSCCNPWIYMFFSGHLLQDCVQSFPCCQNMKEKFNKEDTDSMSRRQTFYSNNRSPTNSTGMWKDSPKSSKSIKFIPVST
T1 sequence (P30518 whole entry): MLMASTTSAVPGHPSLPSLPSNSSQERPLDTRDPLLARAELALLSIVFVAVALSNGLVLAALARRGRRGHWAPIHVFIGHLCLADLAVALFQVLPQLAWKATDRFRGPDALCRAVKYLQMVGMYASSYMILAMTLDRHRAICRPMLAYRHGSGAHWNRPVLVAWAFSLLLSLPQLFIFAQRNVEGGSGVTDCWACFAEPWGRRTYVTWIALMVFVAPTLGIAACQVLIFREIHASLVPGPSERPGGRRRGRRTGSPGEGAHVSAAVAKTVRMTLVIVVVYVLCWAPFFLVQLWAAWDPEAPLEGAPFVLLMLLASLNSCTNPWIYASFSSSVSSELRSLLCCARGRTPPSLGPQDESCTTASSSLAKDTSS

Row | IC50 (human V2 receptor) | IC50 (human V1a receptor) | ratio IC50 hV2/hV1a (human V1a receptor) | IC50 (human V2 receptor; 3 hours) | SMILES
1 | 3950 nM | 130 nM | 30.4 |  | O=C(NC1CC1(F)F)c1ncccc1-n1cnc(Cn2nc(-c3ccc(Cl)cc3)n(C[C@@H](O)C(F)(F)F)c2=O)n1 (stereo partly drawn) [Example 460, 3-[3-({3-(4-Chlorophenyl)-5-oxo-4-[(2R)-3,3,3-trifluoro-2-hydroxypropyl]-4,5-dihydro-1H-1,2,4-triazol-1-yl}methyl)-1H-1,2,4-triazol-1-yl]-N-[2,2-difluorocyclopropyl]pyridine-2-carboxamide]
2 |  | 170 nM | 24.4 | 4150 nM | O=C(c1cccc(Cl)c1-n1cnc(Cn2nc(-c3ccc(Cl)cc3)n(C[C@H](O)C(F)(F)F)c2=O)n1)N1CCC(C(F)(F)F)C1 (mixture of isomers) [Example 386, 5-(4-Chlorophenyl)-2-{[1-(2-chloro-6-{[3-(trifluoromethyl)pyrrolidin-1-yl]carbonyl}phenyl)-1H-1,2,4-triazol-3-yl]methyl}-4-[(2S)-3,3,3-trifluoro-2-hydroxypropyl]-2,4-dihydro-3H-1,2,4-triazol-3-one]
3 |  | 2.95 nM | 289.8 | 855 nM | O=C(c1ccccc1-n1cnc(Cn2nc(-c3ccc(Cl)cc3)n(C[C@H](O)C(F)(F)F)c2=O)n1)N1CCSC1 [Example 334, 5-(4-Chlorophenyl)-2-({1-[2-(1,3-thiazolidin-3-ylcarbonyl)phenyl]-1H-1,2,4-triazol-3-yl}methyl)-4-[(2S)-3,3,3-trifluoro-2-hydroxypropyl]-2,4-dihydro-3H-1,2,4-triazol-3-one]
4 |  | 195 nM | 19.0 | 3700 nM | O=C(NCC(F)(F)F)c1cccc(Cl)c1-n1cnc(Cn2nc(-c3ccc(Cl)cc3)n(C[C@@H](O)C(F)(F)F)c2=O)n1 [Example 366, 3-Chloro-2-[3-({3-(4-chlorophenyl)-5-oxo-4-[(2R)-3,3,3-trifluoro-2-hydroxypropyl]-4,5-dihydro-1H-1,2,4-triazol-1-yl}methyl)-1H-1,2,4-triazol-1-yl]-N-(2,2,2-trifluoroethyl)benzamide]
5 | 2050 nM | 34.5 nM | 59.4 |  | O=C(N[C@@H]1C[C@@H]1F)c1cccc(C(F)(F)F)c1-n1cnc(Cn2nc(-c3ccc(Cl)cc3)n(C[C@H](O)C(F)(F)F)c2=O)n1 (racemic) [Example 413, 2-[3-({3-(4-Chlorophenyl)-5-oxo-4-[(2S)-3,3,3-trifluoro-2-hydroxypropyl]-4,5-dihydro-1H-1,2,4-triazol-1-yl}methyl)-1H-1,2,4-triazol-1-yl]-N-[2-fluorocyclopropyl]-3-(trifluoromethyl)benzamide]
6 |  | 6.85 nM | 19.7 | 135 nM | Nc1cccc(NC(=O)c2ccccc2-n2cnc(Cn3nc(-c4ccc(Cl)cc4)n(C[C@H](O)C(F)(F)F)c3=O)n2)n1 [Example 312, N-(6-Aminopyridin-2-yl)-2-[3-({3-(4-chlorophenyl)-5-oxo-4-[(2S)-3,3,3-trifluoro-2-hydroxypropyl]-4,5-dihydro-1H-1,2,4-triazol-1-yl}methyl)-1H-1,2,4-triazol-1-yl]benzamide]
7 |  | 4.15 nM | 220.5 | 915 nM | Cc1ccncc1NC(=O)c1ccccc1-n1cnc(Cn2nc(-c3ccc(Cl)cc3)n(C[C@H](O)C(F)(F)F)c2=O)n1 [Example 313, 2-[3-({3-(4-Chlorophenyl)-5-oxo-4-[(2S)-3,3,3-trifluoro-2-hydroxypropyl]-4,5-dihydro-1H-1,2,4-triazol-1-yl}methyl)-1H-1,2,4-triazol-1-yl]-N-(4-methylpyridin-3-yl)benzamide]
8 | 1800 nM | 92 nM | 19.6 |  | O=C(NC1(C(F)(F)F)CC1)c1ncccc1-n1cnc(Cn2nc(-c3ccc(Cl)cc3)n(C[C@@H](O)C(F)(F)F)c2=O)n1 [Example 473, 3-[3-({3-(4-Chlorophenyl)-5-oxo-4-[(2R)-3,3,3-trifluoro-2-hydroxypropyl]-4,5-dihydro-1H-1,2,4-triazol-1-yl}methyl)-1H-1,2,4-triazol-1-yl]-N-[1-(trifluoromethyl)cyclopropyl]pyridine-2-carboxamide]

More lines, now with the values behind:

Row | SMILES | IC50 (human V2 receptor) | IC50 (human V1a receptor) | ratio IC50 hV2/hV1a (human V1a receptor) | IC50 (human V2 receptor; 3 hours)
9 | O=C(NC1CS(=O)(=O)C1)c1ccccc1-n1cnc(Cn2nc(-c3ccc(Cl)cc3)n(C[C@H](O)C(F)(F)F)c2=O)n1 [Example 176, 2-[3-({3-(4-Chlorophenyl)-5-oxo-4-[(2S)-3,3,3-trifluoro-2-hydroxypropyl]-4,5-dihydro-1H-1,2,4-triazol-1-yl}methyl)-1H-1,2,4-triazol-1-yl]-N-(1,1-dioxidothietan-3-yl)benzamide] |  | 15 nM | 83.3 | 1250 nM
10 | CC1(C(=O)Nc2ncccc2-n2cnc(Cn3nc(-c4ccc(Cl)cc4)n(C[C@H](O)C(F)(F)F)c3=O)n2)CC1 [Example 154] |  | 6.75 nM | 325.9 | 2200 nM
11 | O=C(CN1CCCCC1)Nc1ncccc1-n1cnc(Cn2nc(-c3ccc(Cl)cc3)n(C[C@H](O)C(F)(F)F)c2=O)n1 [Example 103] |  | 155 nM | 15.5 | 2400 nM
12 | O=C(Nc1cccnc1-n1cnc(Cn2nc(-c3ccc(Cl)cc3)n(C[C@H](O)C(F)(F)F)c2=O)n1)C1CS(=O)(=O)C1 [Example 58, N-{2-[3-({3-(4-Chlorophenyl)-5-oxo-4-[(2S)-3,3,3-trifluoro-2-hydroxypropyl]-4,5-dihydro-1H-1,2,4-triazol-1-yl}methyl)-1H-1,2,4-triazol-1-yl]pyridin-3-yl}thietane-3-carboxamide 1,1-dioxide] |  | 19.5 nM | 58.3 | 1140 nM
13 | O=C(Nc1ncccc1-n1cnc(Cn2nc(-c3ccc(Cl)cc3)n(C[C@H](O)C(F)(F)F)c2=O)n1)C1CC1(F)F (mixture of isomers) [Example 75, N-{3-[3-({3-(4-Chlorophenyl)-5-oxo-4-[(2S)-3,3,3-trifluoro-2-hydroxypropyl]-4,5-dihydro-1H-1,2,4-triazol-1-yl}methyl)-1H-1,2,4-triazol-1-yl]pyridin-2-yl}-2,2-difluorocyclopropanecarboxamide] |  | 6.6 nM | 197.0 | 1300 nM
14 | O=C(c1ccccc1-n1cnc(Cn2nc(-c3ccc(Cl)cc3)n(C[C@H](O)C(F)(F)F)c2=O)n1)N1CCCCO1 [Example 278, 5-(4-Chlorophenyl)-2-({1-[2-(1,2-oxazinan-2-ylcarbonyl)phenyl]-1H-1,2,4-triazol-3-yl}methyl)-4-[(2S)-3,3,3-trifluoro-2-hydroxypropyl]-2,4-dihydro-3H-1,2,4-triazol-3-one] |  | 1.6 nM | 253.1 | 405 nM
15 | O=C(Nc1ncccc1-n1cnc(Cn2nc(-c3ccc(Cl)cc3)n(C[C@H](O)C(F)(F)F)c2=O)n1)c1ccccc1O [Example 101] |  | 110 nM | 17.7 | 1950 nM
16 | N#Cc1cccc(C(=O)Nc2ncccc2-n2cnc(Cn3nc(-c4ccc(Cl)cc4)n(C[C@H](O)C(F)(F)F)c3=O)n2)c1 [Example 153] |  | 410 nM | 42.2 | 17300 nM
17 | Cc1nnc(NC(=O)c2ccccc2-n2cnc(Cn3nc(-c4ccc(Cl)cc4)n(C[C@H](O)C(F)(F)F)c3=O)n2)s1 [Example 238, 2-[3-({3-(4-Chlorophenyl)-5-oxo-4-[(2S)-3,3,3-trifluoro-2-hydroxypropyl]-4,5-dihydro-1H-1,2,4-triazol-1-yl}methyl)-1H-1,2,4-triazol-1-yl]-N-(5-methyl-1,3,4-thiadiazol-2-yl)benzamide] |  | 13.5 nM | 3.3 | 44.5 nM
18 | O=C(CC1CCC1)Nc1ncccc1-n1cnc(Cn2nc(-c3ccc(Cl)cc3)n(C[C@H](O)C(F)(F)F)c2=O)n1 [Example 136] |  | 23.5 nM | 14.5 | 340 nM
19 | CN1CCN(C(=O)c2ccccc2-n2cnc(Cn3nc(-c4ccc(Cl)cc4)n(C[C@H](O)C(F)(F)F)c3=O)n2)CC1=O [Example 288, 4-{2-[3-({3-(4-Chlorophenyl)-5-oxo-4-[(2S)-3,3,3-trifluoro-2-hydroxypropyl]-4,5-dihydro-1H-1,2,4-triazol-1-yl}methyl)-1H-1,2,4-triazol-1-yl]benzoyl}-1-methylpiperazin-2-one] |  | 46 nM | 92.4 | 4250 nM
20 | NC(=O)[C@H]1CC(F)(F)CN1c1ccncc1-n1cnc(Cn2nc(-c3ccc(Cl)cc3)n(C[C@H](O)C(F)(F)F)c2=O)n1 [Example 24, 1-{3-[3-({3-(4-Chlorophenyl)-5-oxo-4-[(2S)-3,3,3-trifluoro-2-hydroxypropyl]-4,5-dihydro-1H-1,2,4-triazol-1-yl}methyl)-1H-1,2,4-triazol-1-yl]pyridin-4-yl}-4,4-difluoro-D-prolinamide] |  | 330 nM | 14.2 | 4670 nM
21 | CN(CC(F)(F)F)C(=O)c1ccccc1-n1cnc(Cn2nc(-c3ccc(Cl)cc3)n(C[C@H](O)C(F)(F)F)c2=O)n1 [Example 272, 2-[3-({3-(4-Chlorophenyl)-5-oxo-4-[(2S)-3,3,3-trifluoro-2-hydroxypropyl]-4,5-dihydro-1H-1,2,4-triazol-1-yl}methyl)-1H-1,2,4-triazol-1-yl]-N-methyl-N-(2,2,2-trifluoroethyl)benzamide] |  | 5.85 nM | 299.1 | 1750 nM
22 | CNC(=O)c1cc(Cl)ccc1-n1cnc(Cn2nc(-c3ccc(Cl)cc3)n(C[C@H](O)C(F)(F)F)c2=O)n1 [Example 187, 5-chloro-2-[3-({3-(4-Chlorophenyl)-5-oxo-4-[(2S)-3,3,3-trifluoro-2-hydroxypropyl]-4,5-dihydro-1H-1,2,4-triazol-1-yl}methyl)-1H-1,2,4-triazol-1-yl]-N-methylbenzamide] |  | 12.3 nM | 3.9 | 48.5 nM
